Assay results taken from patent US20240238314A1, “TREATMENT OF ESSENTIAL TREMOR” (Sage Therapeutics, Inc., priority 2021, published 2024).
Entries after “also recorded” stand apart in the source; their conditions may differ.

System: individuals with essential tremor
Assay: Phase 2 study, Compound 1 60 mg once daily for 28 days: safety and tolerability (TEAEs, dose reduction, discontinuation; Safety Set)
Type: in vivo, human
Method: • Incidence of treatment-emergent adverse events (TEAEs). • Safety and tolerability of Compound 1 as assessed by change from baseline in vital signs, electrocardiograms (ECGs), clinical laboratory parameters, and Columbia-Suicide Severity Rating Scale (C-SSRS). • Physician Withdrawal Checklist (PWC-20).
Participants were randomized to receive Compound 1 60 mg or placebo once daily in the morning on a 1:1 basis. If participants reported a TEAE considered by investigator to be related to Compound 1 and not tolerable, investigator might reduce the dose of Compound 1 from 60 mg in 15 mg decrements (i.e., 60 mg, to 45 mg, to 30 mg), as medically appropriate. If intolerable TEAEs persist at the 30 mg dose, Compound 1 was permanently stopped.
Participants were monitored for safety during the Treatment and Follow-up Periods (through Study Day 45 [±3 days]) including monitoring for AEs/serious AEs (SAEs), routine clinical laboratory assessments, physical examination, vital signs, and ECG, etc.
Safety Set: defined as all participants who received at least one dose of Compound 1. The Safety Set was used to provide descriptive summaries of the safety data.
The safety and tolerability of Compound 1 were evaluated by adverse events, concomitant medication usage, changes from baseline in physical examination, vital signs, clinical laboratory evaluations, and 12-lead ECG. Suicidality was monitored by the C-SSRS. Safety data were listed by subject and by study drug and summarized descriptively. All safety summaries were performed on the Safety Set.
The incidence of adverse events were summarized by system organ class, and preferred term for subjects in Safety Set.

[1] = Safety Set, N = 34, listed as Cmpd 1

COC[C@@]1(O)CC[C@H]2[C@@H](CC[C@@H]3[C@@H]2CC[C@]2(C)[C@@H](C(=O)Cn4nnc(C)n4)CC[C@@H]32)C1 [Compound 1]
Participants with early discontinuation of the study at 60 mg, number: 5 | Down-titration of dose, percent of patients (60 mg down-titrated to 45 mg or 30 mg): 62% | Early treatment discontinuation, reason Physician Decision, number (N = 34): 1 | Early treatment discontinuation, reason Physician Decision, percent (N = 34): 2.9% | Early treatment discontinuation, reason Subject was lost to follow up, number (N = 34): 0 | Early treatment discontinuation, reason Withdrawal by Subject, number (N = 34): 3 | Early treatment discontinuation, reason Withdrawal by Subject, percent (N = 34): 8.8% | TEAE Asthenia, number of participants (Safety Set, N = 34): 1 | TEAE Asthenia, percent of participants (Safety Set, N = 34): (2.9%) | TEAE Balance disorder, number of participants (Safety Set, N = 34): 5 | TEAE Balance disorder, percent of participants (Safety Set, N = 34): 15% | TEAE Coordination abnormal, number of participants (Safety Set, N = 34): 1 | TEAE Coordination abnormal, percent of participants (Safety Set, N = 34): (2.9%) | TEAE Diarrhoea, number of participants (Safety Set, N = 34): 2 | TEAE Diarrhoea, percent of participants (Safety Set, N = 34): (5.9%) | TEAE Diplopia, number of participants (Safety Set, N = 34): 4 | TEAE Diplopia, percent of participants (Safety Set, N = 34): 12% | TEAE Disturbance in attention, number of participants (Safety Set, N = 34): 3 | TEAE Disturbance in attention, percent of participants (Safety Set, N = 34): (8.8%) | TEAE Dizziness, number of participants (Safety Set, N = 34): 13 | TEAE Dizziness, percent of participants (Safety Set, N = 34): 38% | TEAE Dysarthria, number of participants (Safety Set, N = 34): 4 | TEAE Dysarthria, percent of participants (Safety Set, N = 34): 12% | TEAE Fatigue, number of participants (Safety Set, N = 34): 5 | TEAE Fatigue, percent of participants (Safety Set, N = 34): (14.7%) | TEAE Gait disturbance, number of participants (Safety Set, N = 34): 4 | TEAE Gait disturbance, percent of participants (Safety Set, N = 34): 12% | TEAE Headache, number of participants (Safety Set, N = 34): 2 | TEAE Headache, percent of participants (Safety Set, N = 34): (5.9%) | TEAE Insomnia, number of participants (Safety Set, N = 34): 1 | TEAE Insomnia, percent of participants (Safety Set, N = 34): (2.9%) | TEAE Irritability, number of participants (Safety Set, N = 34): 0 | TEAE Lethargy, number of participants (Safety Set, N = 34): 2 | TEAE Lethargy, percent of participants (Safety Set, N = 34): (5.9%) | TEAE Mental status changes, number of participants (Safety Set, N = 34): 2 | TEAE Mental status changes, percent of participants (Safety Set, N = 34): (5.9%) | TEAE Myalgia, number of participants (Safety Set, N = 34): 0 | TEAE Myoclonus, number of participants (Safety Set, N = 34): 3 | TEAE Myoclonus, percent of participants (Safety Set, N = 34): (8.8%) | TEAE Paraesthesia, number of participants (Safety Set, N = 34): 2 | TEAE Paraesthesia, percent of participants (Safety Set, N = 34): (5.9%) | TEAE Somnolence, number of participants (Safety Set, N = 34): 23 | TEAE Speech disorder, number of participants (Safety Set, N = 34): 2 | TEAE Speech disorder, percent of participants (Safety Set, N = 34): (5.9%) | TEAE Urinary tract infection, number of participants (Safety Set, N = 34): 1 | TEAE Urinary tract infection, percent of participants (Safety Set, N = 34): (2.9%) | TEAE Balance disorder, percent of participants [1]: (14.7%) | TEAE Diplopia, percent of participants [1]: (11.8%) | TEAE Dizziness, percent of participants [1]: (38.2%) | TEAE Dysarthria, percent of participants [1]: (11.8%) | TEAE Gait disturbance, percent of participants [1]: (11.8%) | TEAE Somnolence, percent of participants [1]: (67.6%) | Discontinuations noted, of patients receiving Compound 1 (in vivo): 3800 | Participants with early discontinuation of the study at 60 mg, percent (in vivo): 14.7% | Severe adverse events (SAEs) reported by one participant, in words (individual participants of the Compound 1 group): mental status changes; also recorded: dehydration; also recorded: headache; also recorded: transient ischaemic attack | Early treatment discontinuation due to adverse event (TEAEs leading to treatment discontinuation), number (of 34): 9 | Early treatment discontinuation due to adverse event (TEAEs leading to treatment discontinuation), percent (of 34): 26.5% | Participants reporting TEAEs leading to study discontinuation, number (of 34): 4 | Participants reporting TEAEs leading to study discontinuation, percent (of 34): 11.8% | Participants reporting TEAEs resulting in treatment dose reduction, number (of 34): 21 | Participants reporting TEAEs resulting in treatment dose reduction, percent (of 34): 61.8% | Participants reporting severe TEAEs, number (of 34): 11 | Participants reporting severe TEAEs, percent (of 34): 32.4% | Participants reporting treatment-emergent adverse events (TEAEs), number (of 34): 33 | Participants reporting treatment-emergent adverse events (TEAEs), percent (of 34): 97.1% | Participants who completed the study at 60 mg dose, number (of 34): 8 | Participants who completed the study at 60 mg dose, percent (of 34): 23.5% | Participants who had dose reduced to 30 mg from 60 mg directly, number (of 34): 2 | Participants who had dose reduced to 30 mg from 60 mg directly, percent (of 34): 5.9% | Participants who had dose reduced to 45 mg, number (of 34): 19 | Participants who had dose reduced to 45 mg, percent (of 34): 55.9%
